This is an account of results in PubChem BioAssay AID330 (DTP/NCI, 2004).

The subject of the assay is P388 leukemia ip, CD2F1 mice, survival T/C. The experiment in a line: NCI In Vivo Anticancer Drug Screen. Data for tumor model P388 Leukemia (intraperitoneal) in CD2F1 (CDF1) mice. The settings on record: endpoint: median survival time, higher = longer survival. An outline of the steps: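 Mice carrying the transplanted tumor received test compound or vehicle. Survival was recorded in each group, and the value is the treated-group measurement divided by that of the vehicle-treated control group.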

Setting [1] is: dose: 240.0 mg/kg/injection, schedule: Q01DX005 (ip), vehicle: saline with Tween-80.
[2] abbreviates: dose: 50.0 mg/kg/injection, schedule: Q01DX009 (ip), vehicle: Klucel (hydroxypropylcellulose) (HPC).
Where [3] appears, read: dose: 100.0 mg/kg/injection, schedule: Q01DX009 (ip), vehicle: Klucel (hydroxypropylcellulose) (HPC).
[4] abbreviates: dose: 200.0 mg/kg/injection, schedule: Q01DX009 (ip), vehicle: Klucel (hydroxypropylcellulose) (HPC).
Setting [5] is: dose: 50.0 mg/kg/injection, schedule: Q01DX005 (ip), vehicle: Klucel (hydroxypropylcellulose) (HPC).
Setting [6] is: dose: 100.0 mg/kg/injection, schedule: Q01DX005 (ip), vehicle: Klucel (hydroxypropylcellulose) (HPC).

“And” between values parts separate entries of the source, which are not always exact repeats. Equal values may be shown once. Inconclusive results and toxic doses are left out.

As for `CN(C)CCCNc1cc(O)c2c(c1O)C(=O)c1ccccc1C2=O`, the T/C (dose: 12.5 mg/kg/injection, schedule: Q04DX003 (ip), vehicle: water) is 102 % of control; the T/C (dose: 25.0 mg/kg/injection, schedule: Q01DX009 (ip), vehicle: water) is 109 % of control; the T/C (dose: 25.0 mg/kg/injection, schedule: Q04DX003 (ip), vehicle: water) is 100 % of control; the T/C (dose: 50.0 mg/kg/injection, schedule: Q01DX009 (ip), vehicle: water) is 120 % of control; the T/C (dose: 50.0 mg/kg/injection, schedule: Q04DX003 (ip), vehicle: water) is 115 % of control; the T/C (dose: 88.0 mg/kg/injection, schedule: Q01DX009 (ip), vehicle: other) is 110 % of control. Also, the T/C was 116 % of control (dose: 100.0 mg/kg/injection, schedule: Q01DX009 (ip), vehicle: water); 103 % of control (dose: 100.0 mg/kg/injection, schedule: Q04DX003 (ip), vehicle: water); 117 % of control (dose: 133.0 mg/kg/injection, schedule: Q01DX009 (ip), vehicle: other); 111 % of control (dose: 200.0 mg/kg/injection, schedule: Q04DX003 (ip), vehicle: water).

As for `COc1cccc(/C=N\NC(=O)CNC(=O)Nc2ccc(Cl)c(Cl)c2)c1OC`, the T/C is 91 % of control (dose: 15.0 mg/kg/injection, schedule: Q01DX005 (ip), vehicle: saline with Tween-80); 88 % of control (dose: 30.0 mg/kg/injection, schedule: Q01DX005 (ip), vehicle: saline with Tween-80); 95 % of control under setting [1].

As to `Nc1nc(N)sc(=S)n1`, the T/C is, setting by setting: (dose: 25.0 mg/kg/injection, schedule: Q01DX009 (ip), vehicle: Klucel (hydroxypropylcellulose) (HPC)) 100 % of control; under setting [2], 107 % of control; under setting [3], 94 % of control; under setting [4], 101 % of control.

Consider `CC(=O)NC(Cc1cnc[nH]1)C(C)=O` (centres undefined), for which the T/C is 100 % of control (dose: 50.0 mg/kg/injection, schedule: Q01DX009 (ip), vehicle: saline); 98 % of control (dose: 100.0 mg/kg/injection, schedule: Q01DX009 (ip), vehicle: saline); 104 % of control (dose: 200.0 mg/kg/injection, schedule: Q01DX009 (ip), vehicle: saline).

Turning to `Cc1c(Cl)cccc1N=Cc1ccc(C=Nc2cccc(Cl)c2C)cc1`, the T/C runs as follows: under setting [2], 94 % of control; under setting [3], 92 % of control; under setting [4], 91 % of control.

For the molecule `C=CCOC(=O)C(NC(=O)OCCCC)NC(=O)OCCCC`, the T/C (dose: 50.0 mg/kg/injection, schedule: Q01DX005 (ip), vehicle: saline with Tween-80) was 103 % of control; the T/C (dose: 100.0 mg/kg/injection, schedule: Q01DX005 (ip), vehicle: saline with Tween-80) is 100 % of control; the T/C (dose: 200.0 mg/kg/injection, schedule: Q01DX005 (ip), vehicle: saline with Tween-80) is 98 % of control.

Turning to `CC1([CH2][Hg][I])OCCOC1[CH2][Hg][I]` (centres undefined), the T/C (dose: 25.0 mg/kg/injection, schedule: Q01DX009 (ip), vehicle: saline) was 105 % of control.

As to `COc1ccc2c(N/N=C/c3ccc4c(c3)OCO4)cc(C)nc2c1`, the T/C by setting is: (dose: 1.5 mg/kg/injection, schedule: Q01DX005 (ip), vehicle: Klucel (hydroxypropylcellulose) (HPC)) 95 % of control; (dose: 3.0 mg/kg/injection, schedule: Q01DX005 (ip), vehicle: Klucel (hydroxypropylcellulose) (HPC)) 93 % of control; (dose: 6.0 mg/kg/injection, schedule: Q01DX005 (ip), vehicle: Klucel (hydroxypropylcellulose) (HPC)) 95 % of control; (dose: 6.25 mg/kg/injection, schedule: Q01DX005 (ip), vehicle: Klucel (hydroxypropylcellulose) (HPC)) 88 % of control; (dose: 12.5 mg/kg/injection, schedule: Q01DX005 (ip), vehicle: Klucel (hydroxypropylcellulose) (HPC)) 107 % of control; (dose: 25.0 mg/kg/injection, schedule: Q01DX005 (ip), vehicle: Klucel (hydroxypropylcellulose) (HPC)) 88 % of control.

Take `COc1cccc2c1C(CO)N1C(C#N)C3CC(C(=O)O)C(C1C2)N3C` (centres undefined): the T/C is 116 % of control and 122 % of control (dose: 0.78 mg/kg/injection, schedule: Q01DX005 (ip), vehicle: suspension in saline); 122 % of control (dose: 1.56 mg/kg/injection, schedule: Q01DX005 (ip), vehicle: suspension in saline); 150 % of control (dose: 3.12 mg/kg/injection, schedule: Q01DX005 (ip), vehicle: saline); 157 % of control (dose: 6.25 mg/kg/injection, schedule: Q01DX005 (ip), vehicle: saline); 159 % of control (dose: 6.25 mg/kg/injection, schedule: Q01DX005 (ip), vehicle: suspension in saline); 160 % of control (dose: 12.5 mg/kg/injection, schedule: Q01DX005 (ip), vehicle: saline). Besides, the T/C is 150 % of control and 178 % of control and 186 % of control (dose: 12.5 mg/kg/injection, schedule: Q01DX005 (ip), vehicle: suspension in saline); 200 % of control (dose: 25.0 mg/kg/injection, schedule: Q01DX005 (ip), vehicle: saline).

Consider `C#CCNC1=CC(=O)CCC1`, for which the T/C is 100 % of control (dose: 60.0 mg/kg/injection, schedule: Q01DX005 (ip), vehicle: saline); 106 % of control (dose: 120.0 mg/kg/injection, schedule: Q01DX005 (ip), vehicle: saline); 118 % of control (dose: 240.0 mg/kg/injection, schedule: Q01DX005 (ip), vehicle: saline).

For `CSCCC(NC(=O)c1cnc2ccccc2c1)C(N)=O` (centres undefined), the T/C reads like this: (dose: 60.0 mg/kg/injection, schedule: Q01DX005 (ip), vehicle: saline with Tween-80) 103 % of control; (dose: 120.0 mg/kg/injection, schedule: Q01DX005 (ip), vehicle: saline with Tween-80) 97 % of control; under setting [1], 87 % of control.

As to `CN(C)c1ccc2nc3c(C(=O)O)cc(=O)c(O)c-3oc2c1`, the T/C is, setting by setting: under setting [5], 103 % of control; under setting [6], 108 % of control.

For `O=C1c2cc3c(-c4ccccc4)sc(-c4ccccc4)c3cc2C(=O)c2c(O)ccc(O)c21`, the T/C was 90 % of control (dose: 12.5 mg/kg/injection, schedule: Q04DX002 (ip), vehicle: saline with Tween-80); 91 % of control (dose: 25.0 mg/kg/injection, schedule: Q04DX002 (ip), vehicle: saline with Tween-80); 98 % of control and 88 % of control (dose: 50.0 mg/kg/injection, schedule: Q04DX002 (ip), vehicle: saline with Tween-80).

Regarding `COC(=O)/C=C(\C=C/C(=O)O)C(=O)O`, the T/C was 104 % of control under setting [5]; 100 % of control under setting [6]; 95 % of control (dose: 200.0 mg/kg/injection, schedule: Q01DX005 (ip), vehicle: Klucel (hydroxypropylcellulose) (HPC)).

Consider `CSc1ccc(/C=N/N=c2ccn(-c3ccc(Cl)cc3)cc2)cc1`, for which the T/C (dose: 25.0 mg/kg/injection, schedule: Q01DX001 (ip), vehicle: Klucel (hydroxypropylcellulose) (HPC)) was 100 % of control; the T/C (dose: 50.0 mg/kg/injection, schedule: Q01DX001 (ip), vehicle: Klucel (hydroxypropylcellulose) (HPC)) was 102 % of control; the T/C (dose: 100.0 mg/kg/injection, schedule: Q01DX001 (ip), vehicle: Klucel (hydroxypropylcellulose) (HPC)) was 100 % of control and 91 % of control.

On to `CCCCCCCCCCCCN1CN=C(N)N(C#N)C1`, for which the T/C (dose: 100.0 mg/kg/injection, schedule: Q04DX002 (ip), vehicle: saline with Tween-80) is 92 % of control; the T/C (dose: 200.0 mg/kg/injection, schedule: Q04DX002 (ip), vehicle: saline with Tween-80) is 99 % of control; the T/C (dose: 400.0 mg/kg/injection, schedule: Q04DX002 (ip), vehicle: saline with Tween-80) was 90 % of control.

With `[S]=[W]=[S]`, the T/C is 98 % of control (dose: 50.0 mg/kg/injection, schedule: Q01DX009 (ip), vehicle: saline with Tween-80); 102 % of control (dose: 100.0 mg/kg/injection, schedule: Q01DX009 (ip), vehicle: saline with Tween-80); 96 % of control (dose: 200.0 mg/kg/injection, schedule: Q01DX009 (ip), vehicle: saline with Tween-80).
